Format in all cases: in vivo
For test [1], the system named is diabetic renal disease mouse model (STZ, C57BL/6J mice). The experiment in a line: Blood glucose, kidney-to-body weight ratio, creatinine clearance rate and urine albumin level in STZ renal disease mouse model. The settings on record: STZ+DCQA group vs STZ, DCQA 9 μg/mL 100 μL intraperitoneally every day for 6 weeks. The method, then: The blood glucose, kidney-to-body weight ratio, creatinine clearance rate and urine albumin level in a renal disease mouse model were measured by the method reported by Kim S Y et al. [Kim S Y, Park K H, Gul R, Jang K Y, Kim U H. Am. J. Physiol. Renal Physiol. 296: F291-F297, 2009]
Specifically, 0.2 mL of 50 mM citrate buffer (pH 4.8) (control group and DCQA group) or 200 μL of 5 mg/mL streptozotocin (STZ, Sigma-Aldrich (USA)) dissolved in 50 mM citrate buffer (STZ group and STZ+DCQA group) was intraperitoneally injected to C57BL/6J mice. Blood glucose was measured from day 2 after the STZ injection and the mice whose blood glucose level was 300 mg/dL were divided into an STZ group and an STZ+DCQA group. […] On the last day, the mouse was put in a metabolic cage and urine was collected for 24 hours.
Then, the body weight and blood glucose of the mouse were measured (FIG. 6A). In addition, in order to investigate the possibility as a therapeutic agent for a renal disease, the mouse was sacrificed and serum and kidney were taken. After measuring kidney-to-body weight ratio (FIG. 6B), some of the kidney was fixed in 10% formalin for fluorescent staining and H&E staining, and the remainder was subjected to ADPR cyclase activity and cADPR concentration measurement. Creatinine clearance rate was calculated by measuring the creatinine levels in urine and serum using a creatinine assay kit (Bioassay Systems, USA) (FIG. 6C), and urine albumin level was measured using an albumin assay kit (Bioassay Systems, USA) (FIG. 6D).

The subject of test [2] is kidney tissue of diabetic renal disease mouse model. Briefly: Histopathological change in kidney tissue of renal disease mouse model (H&E staining). The settings on record: STZ mice, DCQA i.p. every day for 6 weeks, FIG. 9. Here is the method: The histopathological change in the kidney tissue of a renal disease mouse model was measured by the method reported by Shu B et al. [Shu B, Feng Y, Gui Y, Lu Q, Wei W, Xue X, Sun X, He W, Yang J, Dai C. Cell. Signal. 42:249-258, 2018]
Specifically, 0.2 mL of 50 mM citrate buffer (pH 4.8) (control group and DCQA group) or 200 μL of 5 mg/mL streptozotocin (STZ, Sigma-Aldrich (USA)) dissolved in 50 mM citrate buffer (STZ group and STZ+DCQA group) was intraperitoneally injected to C57BL/6J mice. Blood glucose was measured from day 2 after the STZ injection and the mice whose blood glucose level was 300 mg/dL were divided into an STZ group and an STZ+DCQA group. […] In order to investigate the possibility as a therapeutic agent for a renal disease, the mouse was sacrificed and serum and kidney were taken. Some of the extracted kidney was fixed in 10% formalin. The kidney tissue fixed in 10% formalin was cut into kidney tissue sections on a slide glass using a cryostat microtome. The kidney tissue sections were washed with running water for 5 minutes and then stained with hematoxylin for 5 minutes. After the staining, the tissue was washed with running water for 5 minutes. Then, the tissue was immersed in 157 mM hydrochloric acid 2 times and taken out quickly. Then, the tissue was immersed once in 0.25% ammonia water and taken out quickly. After washing again with running water for 5 minutes and staining with eosin for about 30 seconds, the tissue was reacted with 70% ethanol for 30 seconds, with 80% ethanol for 30 seconds, with 90% ethanol for 30 seconds, with 100% ethanol for 30 seconds, again with 100% ethanol for 30 seconds, and then again with 100% ethanol for 30 seconds. Finally, after reacting with xylene for 5 minutes and again with xylene for 5 minutes or longer, a cover glass was attached using a mounting solution.

Test [3] has as its system hypertension mouse model (L-NAME, C57BL/6J mouse). Briefly: Blood pressure and creatinine clearance rate in L-NAME hypertension mouse model. The settings on record: DCQA 9 μg/mL 100 μL intraperitoneally every day for 7 days. The method, then:
The blood pressure and creatinine clearance rate in a hypertension mouse model were measured by the method reported by Allagnat et al. [Allagnat F, Haefliger J A, Lambelet M, Longchamp A, Berard X, Mazzolai L, Corpataux J M, Deglise S. Eur. J. Vasc. Endovasc. Surg. 51: 733-742, 2016] and Kim S Y et al. [Kim S Y, Park K H, Gul R, Jang K Y, Kim U H. Am. J. Physiol. Renal Physiol. 296: F291-F297, 2009]
Specifically, 0.2 mL of 8 mg of L-NAME (Nw-nitro-L-arginine-methyl-ester, Sigma-Aldrich, USA) dissolved in 1 mL of saline was orally administered to C57BL/6J mouse every day. On days 7 and 14 of the oral administration, blood pressure was measured at the tail of the mouse. […] On day 6 after the DCQA treatment, the mouse was put in a metabolic cage and urine was collected for 24 hours.
After measuring the blood pressure of the mouse (FIG. 11A), the mouse was sacrificed and serum was obtained.
Creatinine clearance rate was calculated by measuring the creatinine levels in urine and serum using a creatinine assay kit (Bioassay Systems, USA) (FIG. 11B).

Data on one compound can be found in US20220235343A1, “NOVEL ADP-RIBOSYL CYCLASE AND INHIBITOR THEREOF” (INDUSTRIAL COOPERATION FOUNDATION CHONBUK NATIONAL …, priority 2019, published 2022).

On to `O=C(/C=C/c1ccc(O)c(O)c1)OC1[C@H](O)CC(OC(=O)/C=C/c2ccc(O)c(O)c2)(C(=O)O)C[C@H]1O` (stereo partly drawn) [DCQA, 1,4-dicaffeoylquinic acid], for which, in test [1] (FIG. 6A), the blood glucose entry is “did not show decreased in blood glucose”. Besides, the “kidney to body weight” value in test [1] (FIG. 6B) is “significant decrease in kidney to body weight”. In addition, the creatinine clearance rate result in test [1] (FIG. 6C) was “significant increase in creatinine clearance rate”. Further, in test [1] (FIG. 6D), the urine albumin level result is recorded as “significant decrease in the urine albumin level”. In addition, in test [2], the “formation of transitional epithelial cells increased by STZ, recovered by DCQA” value is “to a level similar to that of the control group”; the “glomerulus hypertrophy increased by STZ, recovered by DCQA” value is listed as “to a level similar to that of the control group”; the “infiltration of inflammatory cells increased by STZ, recovered by DCQA” value was “to a level similar to that of the control group”. Moreover, the blood pressure entry in test [3] (FIG. 11A) is recorded as “no effect of lowering blood pressure”. The creatinine clearance rate result in test [3] (FIG. 11B) is given as “increase in creatinine clearance rate”.
